Assay: xn = mol fraction of the nth substance listed
Conditions: 100 kPa

Work on O + CC[NH3+].O=[N+]([O-])[O-] yielded a viscosity (293.15 K, x1 = 1) of 0.99 mPa·s, a viscosity (298.15 K, x1 = 1) of 0.89 mPa·s and a viscosity (303.15 K, x1 = 1) of 0.81 mPa·s. The viscosity (308.15 K, x1 = 1) was 0.74 mPa·s and the viscosity (318.15 K, x1 = 1) was 0.6 mPa·s.

Work on CC[NH3+].O=[N+]([O-])[O-] + O yielded a viscosity (293.15 K, x2 = 0) of 40.61 mPa·s, a viscosity (293.15 K, x2 = 0.2597) of 9.91 mPa·s and a viscosity (293.15 K, x2 = 0.6776) of 3.6 mPa·s. The viscosity (293.15 K, x2 = 0.7889) was 2.4 mPa·s, the viscosity (293.15 K, x2 = 0.8895) was 1.64 mPa·s and the viscosity (293.15 K, x2 = 0.9499) was 1.36 mPa·s. The viscosity (298.15 K, x2 = 0) was 34.49 mPa·s, the viscosity (298.15 K, x2 = 0.1088) was 18.13 mPa·s and the viscosity (298.15 K, x2 = 0.2597) was 8.77 mPa·s. For the same molecule, the viscosity (298.15 K, x2 = 0.3682) was 6.77 mPa·s, the viscosity (298.15 K, x2 = 0.47) was 5.61 mPa·s and the viscosity (298.15 K, x2 = 0.579) was 4.46 mPa·s. The viscosity (298.15 K, x2 = 0.6776) was 3.22 mPa·s, the viscosity (298.15 K, x2 = 0.9499) was 1.22 mPa·s and the viscosity (303.15 K, x2 = 0) was 29.65 mPa·s. It also gave a viscosity (303.15 K, x2 = 0.3682) of 6.06 mPa·s, a viscosity (303.15 K, x2 = 0.47) of 5.04 mPa·s and a viscosity (303.15 K, x2 = 0.579) of 4 mPa·s. It also gave a viscosity (303.15 K, x2 = 0.6776) of 2.9 mPa·s, a viscosity (303.15 K, x2 = 0.9499) of 1.1 mPa·s and a viscosity (308.15 K, x2 = 0) of 25.76 mPa·s. It also gave a viscosity (308.15 K, x2 = 0.2597) of 6.9 mPa·s, a viscosity (308.15 K, x2 = 0.3682) of 5.41 mPa·s and a viscosity (308.15 K, x2 = 0.579) of 3.61 mPa·s. The viscosity (308.15 K, x2 = 0.6776) was 2.62 mPa·s, the viscosity (308.15 K, x2 = 0.7889) was 1.78 mPa·s and the viscosity (308.15 K, x2 = 0.8895) was 1.22 mPa·s. It also gave a viscosity (308.15 K, x2 = 0.9499) of 1 mPa·s, a viscosity (313.15 K, x2 = 0.1088) of 12.2 mPa·s and a viscosity (313.15 K, x2 = 0.2597) of 6.2 mPa·s. It also gave a viscosity (313.15 K, x2 = 0.3682) of 4.89 mPa·s, a viscosity (313.15 K, x2 = 0.47) of 4.08 mPa·s and a viscosity (313.15 K, x2 = 0.6776) of 2.38 mPa·s. The viscosity (313.15 K, x2 = 0.7889) was 1.62 mPa·s, the viscosity (313.15 K, x2 = 0.8895) was 1.12 mPa·s and the viscosity (313.15 K, x2 = 0.9499) was 0.92 mPa·s. The viscosity (318.15 K, x2 = 0) was 20.12 mPa·s, the viscosity (318.15 K, x2 = 0.1088) was 10.87 mPa·s and the viscosity (318.15 K, x2 = 0.2597) was 5.59 mPa·s. For the same molecule, the viscosity (318.15 K, x2 = 0.3682) was 4.43 mPa·s, the viscosity (318.15 K, x2 = 0.579) was 2.97 mPa·s and the viscosity (318.15 K, x2 = 0.6776) was 2.17 mPa·s. The viscosity (318.15 K, x2 = 0.8895) was 1.03 mPa·s and the viscosity (318.15 K, x2 = 0.9499) was 0.84 mPa·s.

Source: a compilation of properties of binary mixtures (doi:10.1007/s10953-014-0283-z)
